Where “and” joins values, the source holds several entries; their conditions need not be identical. Equal entries are not always repeated.
Tests used:
J774A.1 cells [1] = test: In vitro photosensitizing efficacy in J774A.1 cells, high Gal-1 expression (MTT); type: cell-based
Procedure: (§1) For determining photosensitizing efficacy in B16-F1 and J774A.Cell were plated at 1×10^4 and 2×10^4 cells per well respectively in 96 well plates. After overnight incubation, compounds 1 and 4 at the same concentration (0-2 μM) were added. After further 3 hr incubation, cells were washed with PBS and irradiated with white light (0-4 joules). […] The cells were then incubated in complete media for 48 hrs and assayed for survival using the standard MTT assay.

Gal-1 = Gal-1 (Homo sapiens, UniProt P09382); test: Gal-1 inhibition binding, indirect ELISA (Gal-1-HRP conjugate on asialofetuin-coated wells)
Chain of Gal-1 (P09382 whole entry): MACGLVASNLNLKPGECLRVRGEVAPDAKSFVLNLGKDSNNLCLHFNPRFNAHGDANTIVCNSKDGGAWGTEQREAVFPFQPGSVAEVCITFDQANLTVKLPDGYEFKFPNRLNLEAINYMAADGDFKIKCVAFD
Procedure: Cell. Biochem., 43, 43-57, 1990) to eliminate the thiol requirement for retention of carbohydrate-binding activity. Coupling of alkylated galaptin to Horseradish peroxidase (HRP) was carried out by a two-step glutaraldehyde procedure as described by Engvall (Engvall E., Enzyme Immunoassay ELISA and EMIT, Methods in Enzymology, 70, 419-439, 1980). The galactin-peroxidase conjugate was prepared in 50% glycerol-1% BSA and stored at -20° C. until use. The binding of the Gal-1 to photosensitizers with and without the galactose moiety was measured by an indirect ELISA method as described by Chen et al. […] The microtiter wells (Dynatech Laboratories, Chantilly, Va.) were coated with 2 μg asial fetuin (Sigma) in 100 μl of 0.1M sodium carbonate, 0.2% NaN3, pH 9.6 at 37° C. for 3h. The plates were tightly covered with parafilm and stored at 4° C. for use within three weeks. The optimal dilution for Gal-1HRP conjugate was determined by checker-board titration. For studying the effect of saccharides and their conjugates, 60 μl aliquots of diluted Gal-1-HRP conjugate containing 1.4 μg of Gal-1 were mixed separately in duplicate with 60 μl dilute buffer as well as serially diluted test compounds and incubated for 1 h at 37° C. A 100 μl aliquot was transferred to the microtiter wells, which had been coated with […] Fetuin, blocked and washed. The plates were then incubated for 1 h at 37° C. followed by color development with ABTS (Kirkegaard & Perry lab. Gaithersburg, Md.) and reading at 405 nm on an ELISA reader.

B16-F1 cells = test: In vitro photosensitizing efficacy in B16-F1 cells, low Gal-1 expression (MTT); type: cell-based; conditions: free lactose (100 μM)
Procedure: as §1

J774A.1 cells [2] = test: Photosensitizer uptake in J774A.1 cells (fluorescence/μg protein); type: cell-based; conditions: 1.0 μM, 3 and 24 hrs
Procedure: In order to test the galectin-specificity of the carbohydrate conjugates, the uptake and photosensitizing efficacy of photosensitizers 1 and 4 was investigated in two cell lines; B16-F1 and J774A.1 known for low (15-20%) and high galectin-expression (80-85%) respectively 37. The cells were grown in DMEM with 10% FCS, maintained in 5% CO2, 95% air and 100% humidity. For uptake studies 1×10^6 cells were plated in 60 mm dishes. […] The cells were then gently removed from the dishes, 1.0 ml aliquots were transferred into 1 cm quartz cuvettes and their fluorescence was read on a PT1model ALBHA1 fluorimeter, at 701 nm using an excitation of wavelength of 414 nm. Protein determinations were done using Bio-rad protein assay, protein levels were determined from a standard curve. The data was represented as fluorescence/μg protein.

increase in I50 inhibition binding affinity compared to the galactose conjugate 2 (Gal-1) | IC50 (Gal-1; ELISA, read-out: I50, inhibition of Gal-1 binding) | inhibition at 450 µM (Gal-1; at 450 μM) | inhibition of Gal-1 binding (Gal-1; at 450 μM) | Compound | PDT efficacy on addition of free lactose (J774A.1 cells [1]; free lactose (100 μM)) | phototoxicity compared to photosensitizer 1a (J774A.1 cells [1]; high Gal-1 expression (80-85%), 1.0 μM) | PDT efficacy on addition of free lactose (B16-F1 cells) | drug uptake (J774A.1 cells [2])
40 fold | 540 nM and 500 nM | 29% | – | C=C(C=CCO[C@@H]1O[C@H](CO)[C@@H](O[C@@H]2O[C@H](CO)[C@H](O)[C@H](O)[C@H]2O)[C@H](O)[C@H]1O)CN1C(=O)c2c3nc(cc4[nH]c(cc5nc(cc6[nH]c2c(c6C)C1=O)C(CC)=C5C)c(CC)c4C)C(C)C3CCC(=O)OC (mixture of isomers) [4a, Lactose-Chlorin conjugate joined with diene linkage] | almost completely inhibited | enhanced phototoxicity | almost completely inhibited | increased uptake
– | – | – | 29% | Mesopurpurin-18-N-methyl-(2′-butadiene)imide [1a] | – | – | – | –
